Measured values taken from ChEMBL document CHEMBL4602639, “A novel series of 11-O-carbamoyl-3-O-descladinosyl clarithromycin derivatives bearing 1,2,3-triazole group: Design, synthesis and antibacterial evaluation” (2020).
In brackets after ≈: the same amount, converted by molar mass. Activity calls are given as the source filed them. The rule behind the calls is not given here.

Experiments:
[1] = test system: Escherichia coli; assay: Antibacterial activity against penicillin-susceptible Escherichia coli ATCC 25922 by standard broth microdilution method; format: functional
[2] = test system: Streptococcus pyogenes; assay: Antibacterial activity against erythromycin resistant Streptococcus pyogenes R1 by standard broth microdilution method; format: functional
[3] = test system: Staphylococcus aureus; assay: Antibacterial activity against erythromycin-susceptible Staphylococcus aureus ATCC 25923 by standard broth microdilution method; format: functional
[4] = test system: Streptococcus pyogenes; assay: Potency index, ratio of MIC of CAM to MIC of compound for antibacterial activity against erythromycin resistant Streptococcus pyogenes R1; format: functional
[5] = test system: Pseudomonas aeruginosa; assay: Antibacterial activity against penicillin-susceptible Pseudomonas aeruginosa ATCC 27853 by standard broth microdilution method; format: functional
[6] = test system: Bacillus subtilis; assay: Antibacterial activity against penicillin-susceptible Bacillus subtilis ATCC 9372 by standard broth microdilution method; format: functional
[7] = test system: Streptococcus pneumoniae; assay: Antibacterial activity against erythromycin-resistant Streptococcus pneumoniae AB11 expressing ermB and me/A genes by standard broth microdilution method; format: functional
[8] = test system: Staphylococcus aureus; assay: Antibacterial activity against methicillin-resistant Staphylococcus aureus ATCC 43300 by standard broth microdilution method; format: functional
[9] = test system: Streptococcus pneumoniae; assay: Potency index, ratio of MIC of CAM to MIC of compound for antibacterial activity against erythromycin-resistant Streptococcus pneumoniae AB11 expressing ermB and me/A genes; format: functional
[10] = test system: Streptococcus pneumoniae; assay: Antibacterial activity against erythromycin-resistant Streptococcus pneumoniae B1 expressing ermB gene by standard broth microdilution method; format: functional
[11] = test system: Streptococcus pneumoniae; assay: Potency index, ratio of MIC of AZM to MIC of compound for antibacterial activity against erythromycin-resistant Streptococcus pneumoniae AB11 expressing ermB and me/A genes; format: functional
[12] = test system: Streptococcus pyogenes; assay: Potency index, ratio of MIC of AZM to MIC of compound for antibacterial activity against erythromycin resistant Streptococcus pyogenes R1; format: functional
[13] = test system: Bacillus subtilis; assay: Bactericidal activity against penicillin-susceptible Bacillus subtilis ATCC 9372; format: functional
[14] = test system: Streptococcus pneumoniae; assay: Bactericidal activity against erythromycin-resistant Streptococcus pneumoniae AB11 expressing ermB and me/A genes at 1 to 4 times of MIC incubated for 9 hrs by time-kill curve assay; format: functional, organism-based
[15] = test system: Streptococcus pneumoniae; assay: Bactericidal activity against erythromycin-resistant Streptococcus pneumoniae AB11 expressing ermB and me/A genes; format: functional
[16] = test system: Streptococcus pneumoniae; assay: Bacteriostatic activity against erythromycin-resistant Streptococcus pneumoniae AB11 expressing ermB and me/A genes at 1 to 4 MIC incubated for 9 to 24 hrs by time-kill curve assay; format: functional, organism-based
[17] = test system: Bacillus subtilis; assay: Ratio of MBC for penicillin-susceptible Bacillus subtilis ATCC 9372 to MIC for penicillin-susceptible Bacillus subtilis ATCC 9372; format: functional
[18] = test system: Streptococcus pneumoniae; assay: Ratio of MBC for erythromycin-resistant Streptococcus pneumoniae AB11 expressing ermB and me/A genes to MIC for erythromycin-resistant Streptococcus pneumoniae AB11 expressing ermB and me/A genes; format: functional
[19] = test system: Streptococcus pneumoniae; assay: Potency index, ratio of MIC of CAM to MIC of compound for antibacterial activity against erythromycin-resistant Streptococcus pneumoniae B1 expressing ermB gene; format: functional
[20] = test system: Streptococcus pneumoniae; assay: Potency index, ratio of MIC of AZM to MIC of compound for antibacterial activity against erythromycin-resistant Streptococcus pneumoniae B1 expressing ermB gene; format: functional
[21] = test system: Staphylococcus aureus; assay: Potency index, ratio of MIC of CAM to MIC of compound for antibacterial activity against methicillin-resistant Staphylococcus aureus ATCC 43300; format: functional
[22] = test system: Staphylococcus aureus; assay: Potency index, ratio of MIC of AZM to MIC of compound for antibacterial activity against methicillin-resistant Staphylococcus aureus ATCC 43300; format: functional

| Structure (SMILES) | MIC [1] | MIC [2] | MIC [3] | Ratio [4] | MIC [5] | MIC [6] | MIC [7] | MIC [8] | Ratio [9] | MIC [10] | Ratio [11] | Ratio [12] | MBC [13] | MBC [15] | Ratio [17] | Ratio [18] | further results |
| --- | --- | --- | --- | --- | --- | --- | --- | --- | --- | --- | --- | --- | --- | --- | --- | --- | --- |
| CC[C@H]1OC(=O)[C@H](C)C(=O)[C@H](C)[C@@H](O[C@H]2O[C@@H](C)C[C@@H](N(C)C)[C@@H]2O)[C@](C)(OC)C[C@@H](C)C(=O)[C@H](C)[C@@H](OC(=O)NCCCn2cc(-c3cccc(Br)c3)nn2)[C@]1(C)O | > 128 µg/mL | 32 µg/mL (≈ 35.8 µM) | 8 µg/mL (≈ 8.94 µM) | 8 - 16 | 128 µg/mL (≈ 143 µM) | 2 µg/mL (≈ 2.23 µM) | 32 µg/mL (≈ 35.8 µM) | 128 µg/mL (≈ 143 µM) | 4 - 8 | 64 µg/mL (≈ 71.5 µM) | 8 - 16 | 8 - 16 | – | – | – | – | – |
| CC[C@H]1OC(=O)[C@H](C)C(=O)[C@H](C)[C@@H](O[C@H]2O[C@@H](C)C[C@@H](N(C)C)[C@@H]2O)[C@](C)(OC)C[C@@H](C)C(=O)[C@H](C)[C@@H](OC(=O)NCCCn2cc(-c3ccc(Cl)cc3)nn2)[C@]1(C)O | > 128 µg/mL | 32 µg/mL (≈ 37.6 µM) | 4 µg/mL (≈ 4.7 µM) | 8 - 16 | 128 µg/mL (≈ 151 µM) | 1 µg/mL (≈ 1.18 µM) | 16 µg/mL (≈ 18.8 µM) | 128 µg/mL (≈ 151 µM) | 4 - 8 | 64 µg/mL (≈ 75.3 µM) | 8 - 16 | 8 - 16 | 128 µg/mL (≈ 151 µM) | 128 µg/mL (≈ 151 µM) | 512 | 1 | Activity [14]: Active; Activity [16]: Dose-dependent effect |
| CC[C@H]1OC(=O)[C@H](C)C(=O)[C@H](C)[C@@H](O[C@H]2O[C@@H](C)C[C@@H](N(C)C)[C@@H]2O)[C@](C)(OC)C[C@@H](C)C(=O)[C@H](C)[C@@H](OC(=O)NCCCn2cc(-c3ccc(-c4ccccc4)cc3)nn2)[C@]1(C)O | > 128 µg/mL | 16 µg/mL (≈ 17.9 µM) | 4 µg/mL (≈ 4.48 µM) | 8 - 16 | 128 µg/mL (≈ 143 µM) | 1 µg/mL (≈ 1.12 µM) | 16 µg/mL (≈ 17.9 µM) | 64 µg/mL (≈ 71.7 µM) | 4 - 8 | 16 µg/mL (≈ 17.9 µM) | 8 - 16 | 8 - 16 | 32 µg/mL (≈ 35.9 µM) | 128 µg/mL (≈ 143 µM) | 32 | 8 | Ratio [19]: >16; Ratio [20]: >16; Ratio [21]: >4; Ratio [22]: >4 |
| CCCCc1ccc(-c2cn(CCCNC(=O)O[C@@H]3[C@@H](C)C(=O)[C@H](C)C[C@@](C)(OC)[C@H](O[C@H]4O[C@@H](C)C[C@@H](N(C)C)[C@@H]4O)[C@@H](C)C(=O)[C@@H](C)C(=O)O[C@H](CC)[C@@]3(C)O)nn2)cc1 | > 128 µg/mL | 16 µg/mL (≈ 18.3 µM) | 16 µg/mL (≈ 18.3 µM) | 8 - 16 | 128 µg/mL (≈ 147 µM) | 2 µg/mL (≈ 2.29 µM) | 32 µg/mL (≈ 36.7 µM) | 64 µg/mL (≈ 73.4 µM) | 4 - 8 | 32 µg/mL (≈ 36.7 µM) | 8 - 16 | 8 - 16 | – | – | – | – | Ratio [21]: >4; Ratio [22]: >4 |
| CC[C@H]1OC(=O)[C@H](C)C(=O)[C@H](C)[C@@H](O[C@H]2O[C@@H](C)C[C@@H](N(C)C)[C@@H]2O)[C@](C)(OC)C[C@@H](C)C(=O)[C@H](C)[C@@H](OC(=O)NCCCn2cc(-c3ccccc3OC)nn2)[C@]1(C)O | > 128 µg/mL | 64 µg/mL (≈ 75.6 µM) | 8 µg/mL (≈ 9.46 µM) | – | 128 µg/mL (≈ 151 µM) | 2 µg/mL (≈ 2.36 µM) | 32 µg/mL (≈ 37.8 µM) | > 256 µg/mL | 4 - 8 | 256 µg/mL (≈ 303 µM) | 8 - 16 | – | – | – | – | – | – |
| CCCCc1ccc(-c2cn(CCNC(=O)O[C@@H]3[C@@H](C)C(=O)[C@H](C)C[C@@](C)(OC)[C@H](O[C@H]4O[C@@H](C)C[C@@H](N(C)C)[C@@H]4O)[C@@H](C)C(=O)[C@@H](C)C(=O)O[C@H](CC)[C@@]3(C)O)nn2)cc1 | > 128 µg/mL | 32 µg/mL (≈ 37.3 µM) | 16 µg/mL (≈ 18.6 µM) | 8 - 16 | 128 µg/mL (≈ 149 µM) | 4 µg/mL (≈ 4.66 µM) | 64 µg/mL (≈ 74.6 µM) | 256 µg/mL (≈ 298 µM) | – | 128 µg/mL (≈ 149 µM) | – | 8 - 16 | – | – | – | – | – |
| CC[C@H]1OC(=O)[C@H](C)C(=O)[C@H](C)[C@@H](O[C@H]2O[C@@H](C)C[C@@H](N(C)C)[C@@H]2O)[C@](C)(OC)C[C@@H](C)C(=O)[C@H](C)[C@@H](OC(=O)NCCn2cc(-c3ccc(-c4ccccc4)cc3)nn2)[C@]1(C)O | > 128 µg/mL | 32 µg/mL (≈ 36.4 µM) | 32 µg/mL (≈ 36.4 µM) | 8 - 16 | 128 µg/mL (≈ 146 µM) | 4 µg/mL (≈ 4.56 µM) | 64 µg/mL (≈ 72.9 µM) | 128 µg/mL (≈ 146 µM) | – | 128 µg/mL (≈ 146 µM) | – | 8 - 16 | – | – | – | – | – |
| CC[C@H]1OC(=O)[C@H](C)C(=O)[C@H](C)[C@@H](O[C@H]2O[C@@H](C)C[C@@H](N(C)C)[C@@H]2O)[C@](C)(OC)C[C@@H](C)C(=O)[C@H](C)[C@@H](OC(=O)NCCCn2cc(-c3cccc(N)c3)nn2)[C@]1(C)O | > 128 µg/mL | 128 µg/mL (≈ 154 µM) | 16 µg/mL (≈ 19.3 µM) | – | 128 µg/mL (≈ 154 µM) | 4 µg/mL (≈ 4.81 µM) | 32 µg/mL (≈ 38.5 µM) | > 256 µg/mL | 4 - 8 | 128 µg/mL (≈ 154 µM) | 8 - 16 | – | – | – | – | – | – |
| CC[C@H]1OC(=O)[C@H](C)[C@@H](O[C@H]2C[C@@](C)(OC)[C@@H](O)[C@H](C)O2)[C@H](C)[C@@H](O[C@@H]2O[C@H](C)C[C@H](N(C)C)[C@H]2O)[C@](C)(OC)C[C@@H](C)C(=O)[C@H](C)[C@@H](O)[C@]1(C)O [CLARITHROMYCIN] | > 128 µg/mL | 256 µg/mL (≈ 342 µM) | 0.25 µg/mL (≈ 0.334 µM) | – | 32 µg/mL (≈ 42.8 µM) | 0.25 µg/mL (≈ 0.334 µM) | 128 µg/mL (≈ 171 µM) | > 256 µg/mL | – | > 256 µg/mL | – | – | 128 µg/mL (≈ 171 µM) | 256 µg/mL (≈ 342 µM) | 128 | 16 | – |
